{
  "source": "patent US11109593B2",
  "about": "“Isoxazolin-5-one derivative and herbicide containing same as active ingredient” (HOKKO CHEMICAL INDUSTRY CO., LTD., priority 2017, dated 2021)",
  "data": [
    {"test_system": "Echinochloa crus-galli", "assay": "Test Example 1: herbicidal effect test by treatment of rice paddy soil (immediately after seeding)", "assay_type": "in vivo", "conditions": "120 g/10a active ingredient, dry weight vs untreated area, 14 days after treatment", "description": "(§1) Herbicidal Effect Test by Treatment of Rice Paddy Soil\n(§2) Wagner pots with an area of 1/10000 ares were filled with a paddy soil, and after adding water, a compound fertilizer (N:P:K=17:17:17) was added, followed by soil puddling. Then, Echinochloa crus-galli, broad leaf weeds (Lindernia pyxidaria and Monochoria vaginalis) and Scirpus juncoides, 30 seeds each, were sown in a depth of 0 to 1 cm. Water was poured immediately after seeding, and the water depth was kept at about 3 cm. The subsequent management was conducted in a glass greenhouse. Immediately after that, emulsions prepared using the compounds in Table 3 below according to Formulation Example 5 were diluted with water, and a certain amount of the water-diluted agent solutions were dropped. The converted amount of the applied active ingredient corresponded to 120 g per 10 ares.\n(§3) This test was conducted in a double system per one agent solution concentration area, and the herbicidal rates (%) were determined by the following equation (Math. 1) on 14 days after the treatment with the agents. Herbicidal Rate (%)={1-(Average Dry Weight (g) of Plant of Treated Area)/(Average Dry Weight (g) of Plant of Untreated Area)}×100 [Math. 1]\n(§4) The compound numbers in Table 3 are the same as those in Table 1 and Table 2 above.", "units": {"Herbicidal rate (%) Echinochloa crus-galli": "%"}, "values": [
      {"smiles": "Cc1c(Cc2ccccc2N(S(=O)(=O)C(F)(F)F)S(=O)(=O)C(F)(F)F)c(=O)on1CCc1ccc(F)cc1", "note": "[Compound 1-1044]", "Herbicidal rate (%) Echinochloa crus-galli": 90},
      {"smiles": "Cc1c(Cc2ccccc2NS(=O)(=O)C(F)(F)F)c(=O)on1Cc1cccc(F)c1", "note": "[Compound 1-182]", "Herbicidal rate (%) Echinochloa crus-galli": 90},
      {"smiles": "Cc1c(Cc2ccccc2N(S(=O)(=O)C(F)(F)F)S(=O)(=O)C(F)(F)F)c(=O)on1Cc1ccc(C(F)(F)F)cc1", "note": "[Compound 1-1021]", "Herbicidal rate (%) Echinochloa crus-galli": 40},
      {"smiles": "Cc1c(Cc2ccccc2N(S(=O)(=O)C(F)(F)F)S(=O)(=O)C(F)(F)F)c(=O)on1Cc1ccc(F)c(Cl)c1", "note": "[Compound 1-1029]", "Herbicidal rate (%) Echinochloa crus-galli": 60},
      {"smiles": "Cc1c(Cc2ccccc2N(S(=O)(=O)C(F)(F)F)S(=O)(=O)C(F)(F)F)c(=O)on1Cc1cccc(F)c1", "note": "[Compound 1-1013]", "Herbicidal rate (%) Echinochloa crus-galli": 40}
    ]},
    {"test_system": "Scirpus juncoides", "assay": "Test Example 1: herbicidal effect test by treatment of rice paddy soil (immediately after seeding)", "assay_type": "in vivo", "conditions": "120 g/10a active ingredient, dry weight vs untreated area, 14 days after treatment", "description": "as §1, §2, §3, §4", "units": {"Herbicidal rate (%) Scirpus juncoides": "%"}, "values": [
      {"smiles": "Cc1c(Cc2ccccc2N(S(=O)(=O)C(F)(F)F)S(=O)(=O)C(F)(F)F)c(=O)on1CCc1ccc(F)cc1", "note": "[Compound 1-1044]", "Herbicidal rate (%) Scirpus juncoides": 40},
      {"smiles": "Cc1c(Cc2ccccc2NS(=O)(=O)C(F)(F)F)c(=O)on1Cc1cccc(F)c1", "note": "[Compound 1-182]", "Herbicidal rate (%) Scirpus juncoides": 100},
      {"smiles": "Cc1c(Cc2ccccc2N(S(=O)(=O)C(F)(F)F)S(=O)(=O)C(F)(F)F)c(=O)on1Cc1ccc(C(F)(F)F)cc1", "note": "[Compound 1-1021]", "Herbicidal rate (%) Scirpus juncoides": 60},
      {"smiles": "Cc1c(Cc2ccccc2N(S(=O)(=O)C(F)(F)F)S(=O)(=O)C(F)(F)F)c(=O)on1Cc1ccc(F)c(Cl)c1", "note": "[Compound 1-1029]", "Herbicidal rate (%) Scirpus juncoides": 60},
      {"smiles": "Cc1c(Cc2ccccc2N(S(=O)(=O)C(F)(F)F)S(=O)(=O)C(F)(F)F)c(=O)on1Cc1cccc(F)c1", "note": "[Compound 1-1013]", "Herbicidal rate (%) Scirpus juncoides": 90}
    ]},
    {"test_system": "broad leaf weeds (Lindernia pyxidaria and Monochoria vaginalis)", "assay": "Test Example 1: herbicidal effect test by treatment of rice paddy soil (immediately after seeding)", "assay_type": "in vivo", "conditions": "Lindernia pyxidaria, 120 g/10a active ingredient, dry weight vs untreated area, 14 days after treatment", "description": "as §1, §2, §3, §4", "units": {"Herbicidal rate (%) Lindernia pyxidaria": "%"}, "values": [
      {"smiles": "Cc1c(Cc2ccccc2N(S(=O)(=O)C(F)(F)F)S(=O)(=O)C(F)(F)F)c(=O)on1CCc1ccc(F)cc1", "note": "[Compound 1-1044]", "Herbicidal rate (%) Lindernia pyxidaria": 60},
      {"smiles": "Cc1c(Cc2ccccc2NS(=O)(=O)C(F)(F)F)c(=O)on1Cc1cccc(F)c1", "note": "[Compound 1-182]", "Herbicidal rate (%) Lindernia pyxidaria": 100},
      {"smiles": "Cc1c(Cc2ccccc2N(S(=O)(=O)C(F)(F)F)S(=O)(=O)C(F)(F)F)c(=O)on1Cc1ccc(C(F)(F)F)cc1", "note": "[Compound 1-1021]", "Herbicidal rate (%) Lindernia pyxidaria": 40},
      {"smiles": "Cc1c(Cc2ccccc2N(S(=O)(=O)C(F)(F)F)S(=O)(=O)C(F)(F)F)c(=O)on1Cc1ccc(F)c(Cl)c1", "note": "[Compound 1-1029]", "Herbicidal rate (%) Lindernia pyxidaria": 60},
      {"smiles": "Cc1c(Cc2ccccc2N(S(=O)(=O)C(F)(F)F)S(=O)(=O)C(F)(F)F)c(=O)on1Cc1cccc(F)c1", "note": "[Compound 1-1013]", "Herbicidal rate (%) Lindernia pyxidaria": 90}
    ]},
    {"test_system": "broad leaf weeds (Lindernia pyxidaria and Monochoria vaginalis)", "assay": "Test Example 1: herbicidal effect test by treatment of rice paddy soil (immediately after seeding)", "assay_type": "in vivo", "conditions": "Monochoria vaginalis, 120 g/10a active ingredient, dry weight vs untreated area, 14 days after treatment", "description": "as §1, §2, §3, §4", "units": {"Herbicidal rate (%) Monochoria vaginalis": "%"}, "values": [
      {"smiles": "Cc1c(Cc2ccccc2N(S(=O)(=O)C(F)(F)F)S(=O)(=O)C(F)(F)F)c(=O)on1CCc1ccc(F)cc1", "note": "[Compound 1-1044]", "Herbicidal rate (%) Monochoria vaginalis": 40},
      {"smiles": "Cc1c(Cc2ccccc2NS(=O)(=O)C(F)(F)F)c(=O)on1Cc1cccc(F)c1", "note": "[Compound 1-182]", "Herbicidal rate (%) Monochoria vaginalis": 90},
      {"smiles": "Cc1c(Cc2ccccc2N(S(=O)(=O)C(F)(F)F)S(=O)(=O)C(F)(F)F)c(=O)on1Cc1ccc(C(F)(F)F)cc1", "note": "[Compound 1-1021]", "Herbicidal rate (%) Monochoria vaginalis": 40},
      {"smiles": "Cc1c(Cc2ccccc2N(S(=O)(=O)C(F)(F)F)S(=O)(=O)C(F)(F)F)c(=O)on1Cc1ccc(F)c(Cl)c1", "note": "[Compound 1-1029]", "Herbicidal rate (%) Monochoria vaginalis": 60},
      {"smiles": "Cc1c(Cc2ccccc2N(S(=O)(=O)C(F)(F)F)S(=O)(=O)C(F)(F)F)c(=O)on1Cc1cccc(F)c1", "note": "[Compound 1-1013]", "Herbicidal rate (%) Monochoria vaginalis": 90}
    ]},
    {"test_system": "Echinochloa crus-galli", "assay": "Test Example 2: herbicidal effect test by treatment during growing period in paddy rice cultivation (seven days after seeding)", "assay_type": "in vivo", "conditions": "120 g/10a active ingredient, assessed 14 days after treatment, dry weight vs untreated area", "description": "as §3\n(§5) Herbicidal Effect Test by Treatment During Growing Period in Paddy Rice Cultivation\nas §2, with “was mixed,” for “was added,”, “greenhouse. Emulsions” for “greenhouse. Immediately after that, emulsions”, “Table 4” for “Table 3”, “with water seven days after seeding,” for “with water,”, “ares. The test was conducted in a double system per one agent solution concentration area, and the herbicidal rates (%) were determined by the equation (Math. 1) on 14 days after the treatment with the agents. […] The compound numbers in Table 4 are the same as those in Table 1 and Table 2 above.” for “ares.”", "units": {"Herbicidal rate (%) Echinochloa crus-galli": "%"}, "values": [
      {"smiles": "Cc1c(Cc2ccccc2N(S(=O)(=O)C(F)(F)F)S(=O)(=O)C(F)(F)F)c(=O)on1CCc1ccc(F)cc1", "note": "[Compound 1-1044]", "Herbicidal rate (%) Echinochloa crus-galli": 70},
      {"smiles": "Cc1c(Cc2ccccc2NS(=O)(=O)C(F)(F)F)c(=O)on1Cc1cccc(F)c1", "note": "[Compound 1-182]", "Herbicidal rate (%) Echinochloa crus-galli": 40}
    ]},
    {"test_system": "Scirpus juncoides", "assay": "Test Example 2: herbicidal effect test by treatment during growing period in paddy rice cultivation (seven days after seeding)", "assay_type": "in vivo", "conditions": "120 g/10a active ingredient, assessed 14 days after treatment, dry weight vs untreated area", "description": "as §3, §5\nas §2, with “was mixed,” for “was added,”, “greenhouse. Emulsions” for “greenhouse. Immediately after that, emulsions”, “Table 4” for “Table 3”, “with water seven days after seeding,” for “with water,”, “ares. The test was conducted in a double system per one agent solution concentration area, and the herbicidal rates (%) were determined by the equation (Math. 1) on 14 days after the treatment with the agents. […] The compound numbers in Table 4 are the same as those in Table 1 and Table 2 above.” for “ares.”", "units": {"Herbicidal rate (%) Scirpus juncoides": "%"}, "values": [
      {"smiles": "Cc1c(Cc2ccccc2N(S(=O)(=O)C(F)(F)F)S(=O)(=O)C(F)(F)F)c(=O)on1CCc1ccc(F)cc1", "note": "[Compound 1-1044]", "Herbicidal rate (%) Scirpus juncoides": 70},
      {"smiles": "Cc1c(Cc2ccccc2NS(=O)(=O)C(F)(F)F)c(=O)on1Cc1cccc(F)c1", "note": "[Compound 1-182]", "Herbicidal rate (%) Scirpus juncoides": 70}
    ]},
    {"test_system": "broad leaf weeds (Lindernia pyxidaria and Monochoria vaginalis)", "assay": "Test Example 2: herbicidal effect test by treatment during growing period in paddy rice cultivation (seven days after seeding)", "assay_type": "in vivo", "conditions": "Lindernia pyxidaria, 120 g/10a active ingredient, assessed 14 days after treatment, dry weight vs untreated area", "description": "as §3, §5\nas §2, with “was mixed,” for “was added,”, “greenhouse. Emulsions” for “greenhouse. Immediately after that, emulsions”, “Table 4” for “Table 3”, “with water seven days after seeding,” for “with water,”, “ares. The test was conducted in a double system per one agent solution concentration area, and the herbicidal rates (%) were determined by the equation (Math. 1) on 14 days after the treatment with the agents. […] The compound numbers in Table 4 are the same as those in Table 1 and Table 2 above.” for “ares.”", "units": {"Herbicidal rate (%) Lindernia pyxidaria": "%"}, "values": [
      {"smiles": "Cc1c(Cc2ccccc2N(S(=O)(=O)C(F)(F)F)S(=O)(=O)C(F)(F)F)c(=O)on1CCc1ccc(F)cc1", "note": "[Compound 1-1044]", "Herbicidal rate (%) Lindernia pyxidaria": 40},
      {"smiles": "Cc1c(Cc2ccccc2NS(=O)(=O)C(F)(F)F)c(=O)on1Cc1cccc(F)c1", "note": "[Compound 1-182]", "Herbicidal rate (%) Lindernia pyxidaria": 60}
    ]},
    {"test_system": "broad leaf weeds (Lindernia pyxidaria and Monochoria vaginalis)", "assay": "Test Example 2: herbicidal effect test by treatment during growing period in paddy rice cultivation (seven days after seeding)", "assay_type": "in vivo", "conditions": "Monochoria vaginalis, 120 g/10a active ingredient, assessed 14 days after treatment, dry weight vs untreated area", "description": "as §3, §5\nas §2, with “was mixed,” for “was added,”, “greenhouse. Emulsions” for “greenhouse. Immediately after that, emulsions”, “Table 4” for “Table 3”, “with water seven days after seeding,” for “with water,”, “ares. The test was conducted in a double system per one agent solution concentration area, and the herbicidal rates (%) were determined by the equation (Math. 1) on 14 days after the treatment with the agents. […] The compound numbers in Table 4 are the same as those in Table 1 and Table 2 above.” for “ares.”", "units": {"Herbicidal rate (%) Monochoria vaginalis": "%"}, "values": [
      {"smiles": "Cc1c(Cc2ccccc2N(S(=O)(=O)C(F)(F)F)S(=O)(=O)C(F)(F)F)c(=O)on1CCc1ccc(F)cc1", "note": "[Compound 1-1044]", "Herbicidal rate (%) Monochoria vaginalis": 40},
      {"smiles": "Cc1c(Cc2ccccc2NS(=O)(=O)C(F)(F)F)c(=O)on1Cc1cccc(F)c1", "note": "[Compound 1-182]", "Herbicidal rate (%) Monochoria vaginalis": 60}
    ]}
  ]
}
